We go through 88 molecules from a melting point compilation (Tetko et al.; mined from patent text by program, amines drawn as free bases though some values may be those of a salt).

On to `Nc1cc(CO)cc(S(N)(=O)=O)c1Oc1cccc(C(F)(F)F)c1`, for which the melting point lay in the range of 133 to 134 °C. Next, `CCCCCCCCCCCCn1nnc(CCC(=O)Nc2ccc(F)cc2F)n1`: 86 to 87 °C; `O=S(=O)(c1cc(-c2ccc(F)cc2)c(-c2ccc(F)cc2)s1)C(F)(F)F`: 104 to 106 °C. Turning to `CC(C)N1C(=O)c2cnc(-c3ccccc3)nc2Nc2ccccc21`, the melting point lay in the range of 195 to 196 °C. Next, `Cc1ccc(S(=O)(=O)N2CC2c2ccccc2)cc1` (stereo not drawn): 92 to 94 °C; `CNC(=O)n1nc(-c2ccc(Cl)cc2)nc1N`: 193 to 196 °C. Next, `CC(C)N(C)c1nccc(Oc2ccc(NC(=O)c3cc(F)cc(N4CCCCC4)c3)c3ccccc23)n1`: 102 to 104 °C.

`CCCCCCS(=O)(=O)c1ccc(N)cc1` showed a melting point of 95 to 97 °C. Next, `N#Cc1cc(-c2nc3cncnc3s2)ccc1Oc1ccccc1O`: 255 to 256 °C; `COC(=O)CCC(=O)c1ccc(OCc2ccsc2)cc1O`: 100 to 102 °C; `COCOc1ccc(CSc2cnn(C(C)(C)C)c(=O)c2Cl)cc1`: 50 to 54 °C. `O=[N+]([O-])c1cnc(-c2ccccc2)nc1Cl` displayed a melting point of 160 to 161 °C. In the case of `Cn1ncnc1COc1nc2c(-c3ccccc3)nncc2cc1-c1ccccc1`, the melting point was 222 to 223 °C.

The molecule `CCCCC#CCC#CCC#CCCCCCCC(=O)O` registered a melting point of 48.5 to 49.5 °C. Next, `S=C1Nc2cc(Br)ccc2N2CCc3cccc1c32`: 196 to 197 °C; `Cn1c([N+](=O)[O-])cnc1C=Cc1nnc(-c2ccccc2)s1`: 257 °C; `CC(O)c1nc2c(C(F)(F)F)cccc2c(O)c1C(=O)Nc1nccs1` (stereo not drawn): 205 °C. Next, `c1ccc2c(c1)-c1ccccc1C2CN1CCCCC1`: 118 to 119 °C. In the case of `CC(C)CC(C(=O)O)c1cc(Cl)c(-c2ccc(Cl)cc2)c(OCC2CC2)c1` (stereo not drawn), the melting point fell in the range of 52 to 53 °C. Consider `COC(=O)c1ccc2cc(O)ccc2c1`, for which the melting point is 196 °C. For the molecule `NC(=O)Cc1ccc(OC[C@@H]2CO2)cc1`, the melting point is 168 to 169 °C. Next, `Cc1cc([N+](=O)[O-])c(NC(C)C)c([N+](=O)[O-])c1C`: 69 to 70 °C; `O=C(NC1CCOCC1)c1cnccc1C(F)(F)F`: 149 to 150 °C; `CC1(C)Oc2ccc(C#N)cc2[C@H](N)[C@@H]1O` (relative stereo): 85 to 86 °C. Turning to `CCC/C=C/S(=O)(=O)NC(=O)c1ccc2nc(C)n(Cc3ccc(N(C)C(=O)OCC)cc3Cl)c2n1`, the melting point was in the range of 165 to 166 °C. The molecule `COC(=O)c1cc2nnn(-c3ccccc3)c2nc1OCc1ncnn1C` displayed a melting point of 188 to 190 °C. The molecule `CCCCc1nc(Cl)c(C(=O)O)n1Cc1ccc2oc(-c3ccccc3-c3nnn[nH]3)cc2c1` registered a melting point of 209 to 210 °C. As for `CCc1ccc(Cn2cc(-c3cn(C4CC(O)C(CO)O4)c(=O)[nH]c3=O)nn2)cc1` (stereo not drawn), the melting point was found to be 201 °C.

`CCSCCOC(=O)C(Br)=Cc1cc(-n2c(=O)cc(C(F)(F)F)n(C)c2=O)ccc1Cl` yielded a melting point of 118 to 120 °C. With `O=C1c2ccccc2C(O)N1CCCN1CCN(c2ccc(F)cc2)CC1` (stereo not drawn), the melting point worked out at 155 °C. Next, `COc1cc(C(C)C)c2c(c1)S(=O)(=O)N(COc1cc(C(F)(F)F)nn1-c1ccc(Cl)cn1)C2=O`: 173 to 174 °C; `CCOc1nc(N)c2ncn(C3C=CCCC3)c2n1` (stereo not drawn): 67 to 72 °C; `O=C(O)C1(CSc2ccc(Oc3ccc(Br)cc3)cc2)CCOCC1`: 143 °C.

As to `Cc1c(Cl)nc2sc(SCc3ccccc3)nn2c1=O`, the melting point was 102 to 104 °C. Molecule `CC1CC(=O)c2c(C(=O)O)c[nH]c2C1` (stereo not drawn) had a melting point of 210 to 211 °C. Next, `CS(=O)(=O)Nc1cccc(Nc2nc(NCc3cccc(C#N)c3)c3nc[nH]c3n2)c1`: 128 to 131 °C. Next, `CC(CN1C(=O)C2(COc3cc4c(cc32)CCO4)c2ccccc21)OCOCc1ccccc1` (stereo not drawn): 49 to 52 °C; `O=[N+]([O-])c1ccc(NC2CC2)nc1Nc1ccc2[nH]ncc2c1`: 237 to 240 °C. Molecule `Cc1cc2c(c(C=O)c1C)C(C)(C)CCC2(C)C` had a melting point of 74 to 80 °C. The molecule `CNc1cccc(C2C(C(=O)OC)=C(C)NC(C)=C2C(=O)OC)c1` showed a melting point of 182 to 184 °C. Next, `Cc1ccc(OCC(=O)c2ccccc2)cc1`: 65 °C; `COc1ccc2c(c1)Sc1c(cc(OC)c(OC)c1Br)N2`: 223 to 225 °C. `N#Cc1ccccc1-c1ccc(CN2C(=O)C3(COc4cc5c(cc43)CCO5)c3ccccc32)cc1` (stereo not drawn) registered a melting point of 192 to 194 °C. Next, `c1ccc(C(c2ccccc2)N2CCN(CCOc3ccccc3-c3nc4ccccc4s3)CC2)cc1`: 67 to 72 °C. `CCOc1ccc(C2=NN(C3CCCCCC3)C(=O)[C@H]3CC=CC[C@@H]23)cc1OCC` (relative stereo): the melting point was 92 to 93 °C. As to `CCCCCCC(CCCCCC)N1C(=O)c2ccc3c4cccc5c(NC(C)=O)ccc(c6ccc(c2c36)C1=O)c54`, the melting point was > 230 °C. Next, `COC(=O)c1cccnc1SCc1cccc(OC)c1`: 69 to 70 °C; `CC(C)(C)c1ccc(N(c2ccccc2)c2ccc(-c3ccc(Nc4ccccc4)cc3)cc2)cc1`: 126 to 127 °C; `CCOC(=O)C(C)(C)Oc1ccc(-c2ccc(CCNC(=O)c3ccc(F)cc3)cc2)cc1`: 135 °C.

In turn, `Cc1ccc(Cc2ccc3nc(N)sc3c2)s1` gave a melting point of 179 to 181 °C. Take `COc1ccc(-c2csc(C(=O)O)n2)cc1OC`: the melting point was in the range of 105 to 106 °C.

As to `NC1N=C(Cl)C=C(Cl)N1c1c([N+](=O)[O-])cc([N+](=O)[O-])cc1C(F)(F)F` (stereo not drawn), the melting point fell in the range of 170 to 173 °C.

`CNc1nc(SC)ncc1C#N` came in with a melting point of 189 to 190 °C. `Cc1cc(C)cc(-c2cc(O)c(SCCc3ccccc3)c(=O)o2)c1`: the melting point lay within 155 to 157 °C. Next, `O=C(OCCCSc1cccc2nccn12)c1ccccc1`: 60 to 61 °C; `CCCn1c(=O)c2[nH]c(-c3cc(C)n(CC(=O)Nc4ccc(F)cc4)n3)nc2n(CCC)c1=O`: 205 to 207 °C; `COc1cc(C=CC(=O)CCCOc2ccccc2)ccc1O`: 67 to 70 °C. Consider `COc1ccc(C(=O)Nc2ccccc2)cc1NCc1ccc(C(=O)O)cc1`, for which the melting point is > 240 °C. Turning to `O=C(O)c1ccc(OC(F)F)c2oc3ccncc3c12`, the melting point was > 250 °C. `C#CCOc1ccccc1-n1cnc2cc(N)ccc21` showed a melting point of 40 to 42 °C. `Cn1cc(C(=O)c2ccc(Cl)cc2)cc1C(=O)CN1CCCCC1` showed a melting point of 129 to 130 °C. Molecule `O=S(=O)(CC1CCC1)c1nc[nH]n1` registered a melting point of 125 to 134 °C. Next, `N#CCC(=O)c1ccc(C(F)(F)F)cc1[N+](=O)[O-]`: 79.5 to 80.5 °C.

With `CC(C)n1c(=O)nc(-c2ccc(N(C)C)cc2)c2cc3c(cc21)OCO3`, the melting point lay within 240 to 245 °C. Consider `CC(=NOCCO)c1ccc(-c2ccc(C)cc2)cc1`, for which the melting point lay within 142 to 144 °C. The molecule `CN1CCN(S(=O)(=O)c2ccc([C@@H](CC3CCCC3)C(=O)O)cc2)CC1` showed a melting point of 202 to 203 °C. `Cc1ccccc1C(=O)c1cc2c(c(Br)c1O)CCCC2` came in with a melting point of 151 to 153 °C. `Cc1cc(-c2ccc(Cl)cc2)sc1C(=O)O` showed a melting point of 245 to 246 °C. In the case of `CCOC(=O)C1=C(COCC(C)(O)Cn2cncn2)NC(C)=C(C(=O)OC)C1c1cccc(Cl)c1Cl` (stereo not drawn), the melting point fell in the range of 149 to 160 °C. Next, `CCCc1c(OCc2cccn3c(=O)c(C#N)cnc23)ccc(C(C)=O)c1O`: 233 to 234 °C; `O=Cc1ccc(OCCN2OCc3ccccc3C2=O)cc1`: 102 °C. `CC1(C)OC(=C(C#N)C#N)C(C#N)=C1c1ccc(-c2cn(-c3ccccc3)nn2)cc1`: the melting point was 298 °C. For the molecule `COc1cc(N)c(Cl)cc1C(=O)N[C@H]1CCN(Cc2cccnc2)C[C@H]1OC` (relative stereo), the melting point was 189 °C. Next, `OCc1cc(F)c(Cl)nc1Cl`: 65 to 67 °C; `O=C(Nc1ccc(-n2nc(C(F)(F)F)cc2C(F)(F)F)cc1)c1c(Cl)ccc([N+](=O)[O-])c1Cl`: 160 to 161 °C. Turning to `CCCCOc1c(CNC(=O)OC(C)(C)C)n(CC2CC2)c(=O)c2ccc(C(N)=O)cc12`, the melting point was 202 to 203 °C. `CC(C)(C)OC(=O)NCCNC(=O)c1cc(-c2ccccc2)c(=O)n2c1-c1ccccc1C2` gave a melting point of 238 to 240 °C. Next, `CC(c1oc2ccccc2c(=O)c1-c1cccc(F)c1)n1nc(-c2cccc(N(C)C)c2)c2c(N)ncnc21` (stereo not drawn): 218 to 220 °C; `c1ccc2c3c(cnc2c1)OCCN3`: 175 to 176 °C; `Cc1c[nH]c(-c2ccc(OCC(O)CNC(C)(C)C)cc2)n1` (stereo not drawn): 202 to 203 °C.

The molecule `CCOC(=O)N1C(=O)N(C(=O)OCc2ccccc2)C2(C1=O)C(=O)N(Cc1ccc(Cl)c(Cl)c1)c1ccccc12` (stereo not drawn) registered a melting point of 128 to 131 °C. Consider `Cc1nc(C)c(Cl)c(NCc2nccc(SCCOCCn3c([N+](=O)[O-])cnc3C)c2C)n1`, for which the melting point lay in the range of 160 to 163 °C. Next, `O=C1O[C@H](c2ccccc2)[C@H](c2ccccc2)N[C@H]1Cc1ccccc1C1CCCCC1`: 159 to 160 °C; `CC(C)(C)C(O)C(=O)CCn1cncn1` (stereo not drawn): 80 to 83 °C; `FC(F)(F)c1cccc(Nc2nccc(-c3ccnc(Cl)c3)n2)c1`: 169 to 171 °C. Next, `COCc1c(C(=O)OC(C)C)ncc2[nH]c3ccc(I)cc3c12`: 233 to 235 °C. Next, `O=c1c2cc(F)c(F)cc2n(-c2ccc(F)c(Cl)c2)c(=O)n1OCc1ccccc1`: 184 to 186 °C; `COc1ccc(C=C(C(=O)C2CC2)C(=O)C2CC2)cc1`: 60.5 to 61.5 °C.

By melting point is commonly meant the temperature of the solid-liquid transition.
